The text below walks through data of article PMC6757289, “Design and Characterization of SGK3-PROTAC1, an Isoform Specific SGK3 Kinase PROTAC Degrader” (ACS Chemical Biology, 2019).

Bounds are passed on as bounds.

What all share (test): IC50 determination, biochemical kinase assay
The target of one assay is T1, SGK1 (Homo sapiens, UniProt O00141, S422D).
T1 sequence (O00141 60-431 S422D limits assumed): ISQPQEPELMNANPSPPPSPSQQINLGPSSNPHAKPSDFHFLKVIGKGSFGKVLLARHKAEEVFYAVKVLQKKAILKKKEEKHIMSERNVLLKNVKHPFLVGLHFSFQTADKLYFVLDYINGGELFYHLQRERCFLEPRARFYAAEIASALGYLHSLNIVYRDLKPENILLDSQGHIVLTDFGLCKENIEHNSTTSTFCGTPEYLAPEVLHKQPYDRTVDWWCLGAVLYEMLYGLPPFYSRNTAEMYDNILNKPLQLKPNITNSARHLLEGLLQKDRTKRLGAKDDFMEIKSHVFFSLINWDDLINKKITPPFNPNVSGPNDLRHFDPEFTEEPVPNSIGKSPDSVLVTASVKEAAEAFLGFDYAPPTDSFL
To be noted: not in the presence of VHL.

In another assay the target is T2, SGK3 (Homo sapiens, UniProt Q96BR1).
T2 sequence (Q96BR1 1-496): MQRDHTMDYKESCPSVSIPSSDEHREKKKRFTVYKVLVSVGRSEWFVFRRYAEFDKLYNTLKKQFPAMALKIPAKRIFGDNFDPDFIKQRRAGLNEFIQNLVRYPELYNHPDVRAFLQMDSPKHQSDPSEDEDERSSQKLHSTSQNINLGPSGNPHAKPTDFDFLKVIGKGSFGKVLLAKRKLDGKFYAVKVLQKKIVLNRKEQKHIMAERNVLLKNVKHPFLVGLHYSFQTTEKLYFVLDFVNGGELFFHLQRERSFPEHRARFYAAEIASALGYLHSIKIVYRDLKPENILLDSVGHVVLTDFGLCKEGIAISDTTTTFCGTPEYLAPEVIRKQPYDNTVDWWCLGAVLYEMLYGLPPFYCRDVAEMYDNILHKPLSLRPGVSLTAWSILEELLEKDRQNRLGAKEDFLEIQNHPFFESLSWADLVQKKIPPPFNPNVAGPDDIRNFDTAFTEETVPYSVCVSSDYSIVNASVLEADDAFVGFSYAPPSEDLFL
To be noted: not in the presence of VHL. The protocol: (§1) IC50 determination was performed at the MRC PPU International Centre for Protein Kinase Profiling, according to the protocol previously described[47],[48]

The target of the next assay is S6K1 (Homo sapiens, UniProt P23443, T412E). Conditions: for IC50: not in the presence of VHL. The protocol: as §1
Chain of S6K1 (P23443 1-421 T412E limits assumed): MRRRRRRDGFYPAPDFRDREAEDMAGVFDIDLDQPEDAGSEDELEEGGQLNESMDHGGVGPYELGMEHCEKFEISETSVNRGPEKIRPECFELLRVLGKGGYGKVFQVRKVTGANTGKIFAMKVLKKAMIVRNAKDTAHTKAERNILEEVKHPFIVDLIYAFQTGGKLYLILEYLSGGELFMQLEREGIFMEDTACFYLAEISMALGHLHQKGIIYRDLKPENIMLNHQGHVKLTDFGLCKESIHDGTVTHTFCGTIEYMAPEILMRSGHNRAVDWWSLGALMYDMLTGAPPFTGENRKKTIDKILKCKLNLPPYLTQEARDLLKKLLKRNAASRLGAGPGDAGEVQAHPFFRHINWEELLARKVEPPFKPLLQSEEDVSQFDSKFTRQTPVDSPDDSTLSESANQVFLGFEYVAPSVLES

Usually IC50 stands for the midpoint of a concentration-inhibition curve. Consider `COc1ccc(Cl)c(S(=O)(=O)Nc2ccc(-c3nc(OC[C@H]4CNCCO4)c4c(C)n[nH]c4n3)cc2)c1` [290-R, reference compound], for which the IC50 on SGK1 is 19 nM; on SGK3, 35 nM; on S6K1, 10 nM.
`Cc1ccc(F)c(S(=O)(=O)Nc2ccc(-c3nc(OC[C@H]4CNCCO4)c4cn[nH]c4n3)cc2)c1` [308-R, reference compound]: the results for the IC50 on SGK3 and at S6K1 were 5 nM and 1 nM, respectively.
For the compound `Cc1ccc(F)c(S(=O)(=O)Nc2ccc(-c3nc(OC[C@H]4CN(CCOCCOCCOCC(=O)N[C@H](C(=O)N5C[C@H](O)C[C@H]5C(=O)NCc5ccc(-c6scnc6C)cc5)C(C)(C)C)CCO4)c4cn[nH]c4n3)cc2)c1` [DAT1], the 50% inhibitory concentration (IC50) was determined as 1600 nM at SGK1, 440 nM on SGK3 and 160 nM on S6K1.
As for `Cc1ccc(F)c(S(=O)(=O)Nc2ccc(-c3nc(OC[C@H]4CN(CCOCCOCC(=O)N[C@H](C(=O)N5C[C@H](O)C[C@H]5C(=O)NCc5ccc(-c6scnc6C)cc5)C(C)(C)C)CCO4)c4cn[nH]c4n3)cc2)c1` [DAT5], the IC50 at SGK1, at SGK3 and at S6K1 was greater than 10000 nM throughout.
For `Cc1ccc(F)c(S(=O)(=O)Nc2ccc(-c3nc(OC[C@H]4CN(CCOCCOCCOCCOCC(=O)N[C@H](C(=O)N5C[C@H](O)C[C@H]5C(=O)NCc5ccc(-c6scnc6C)cc5)C(C)(C)C)CCO4)c4cn[nH]c4n3)cc2)c1` [DAT6], the IC50 on SGK1, at SGK3 and on S6K1 was greater than 10000 nM each time.
Consider `Cc1ccc(F)c(S(=O)(=O)Nc2ccc(-c3nc(OC[C@H]4CN(CCOCCOCCOCCOCCOCC(=O)N[C@H](C(=O)N5C[C@H](O)C[C@H]5C(=O)NCc5ccc(-c6scnc6C)cc5)C(C)(C)C)CCO4)c4cn[nH]c4n3)cc2)c1` [DAT7], for which the IC50 on SGK1, on SGK3 and at S6K1 was greater than 10000 nM in each case.
On to `Cc1ccc(F)c(S(=O)(=O)Nc2ccc(-c3nc(OC[C@H]4CN(CCCCCCOCCCCCCOCC(=O)N[C@H](C(=O)N5C[C@H](O)C[C@H]5C(=O)NCc5ccc(-c6scnc6C)cc5)C(C)(C)C)CCO4)c4cn[nH]c4n3)cc2)c1` [DAT10], for which the IC50 at SGK1, on SGK3 and on S6K1 was greater than 10000 nM each time.
As for `COc1ccc(Cl)c(S(=O)(=O)Nc2ccc(-c3nc(OC[C@H]4CN(CCCCCCOCCOCCOCCOCC(=O)N[C@H](C(=O)N5C[C@H](O)C[C@H]5C(=O)NCc5ccc(-c6scnc6C)cc5)C(C)(C)C)CCO4)c4c(C)n[nH]c4n3)cc2)c1` [DAT11], the IC50 on SGK1 is 1340 nM; on SGK3, 730 nM; at S6K1 it was 1800 nM.
As to `Cc1ccc(F)c(S(=O)(=O)Nc2ccc(-c3nc(OC[C@H]4CN(CCCCCCOCCOCCOCC(=O)N[C@H](C(=O)N5C[C@H](O)C[C@H]5C(=O)NCc5ccc(-c6scnc6C)cc5)C(C)(C)C)CCO4)c4cn[nH]c4n3)cc2)c1` [SGK3-PROTAC1], the IC50 on SGK1 amounted to 220 nM; on S6K1, 1800 nM. Further, the “increase of IC50 against S6K1 relative to DAT1” value on S6K1 (0.16 μM to 1.8 μM) is on record as “approximately 10 fold”.
As for `Cc1ccc(F)c(S(=O)(=O)Nc2ccc(-c3nc(OC[C@H]4CN(CCCCCCOCCOCCOCC(=O)N[C@H](C(=O)N5C[C@@H](O)C[C@H]5C(=O)NCc5ccc(-c6scnc6C)cc5)C(C)(C)C)CCO4)c4cn[nH]c4n3)cc2)c1` [cisSGK3-PROTAC1], the 50% inhibitory concentration (IC50) at SGK1 stood at 1400 nM; on S6K1 it was 1700 nM.
